{
  "source": "patent US20130059814A1",
  "about": "“ANTI-INFLAMMATORY DERMATOLOGICAL COMPOSITION COMPRISING CORTICOSTEROIDS AND HYALURONATE FRAGMENTS, AND USES THEREOF” (priority 2007, published 2013)",
  "key": {"Hairless SKH mice": {"test_system": "Hairless SKH mice", "test": "Skin atrophy protocol: dermis-epidermis thickness after topical corticosteroid with or without HA fragments", "type": "in vivo", "description": "Hairless SKH mice received twice daily for 5 days a topical treatment on the back with a steroid (0.05% clobetasol propionate or 0.1% desonide) with or without HA fragments (with a molecular weight comprised between 20 and 500 kDa, and obtained by the method including the treatment steps with ultrasound and filtering as described above). These fragments will be designated in the following examples by HAF. Dermal and epidermal atrophy and the concentration of skin hyaluronate were respectively determined by measuring the dermis-epidermis thickness in optical microscopy and by ELISA.\nThe epidermal and cutaneous (distance between the granular layer and the sweating glands) thicknesses were measured by an ocular micrometer. Ten measurements were made per mouse. The prevention index is the ratio between the control treated with clobetasol propionate (PC) alone and the PC +HAF composition.\nThe epidermal thickness was measured with an ocular micrometer after treatment with different desonide concentrations. Ten measurements were made per mouse. The prevention index is the ratio, at a determined corticosteroid concentration, between the control treated by the corticosteroid alone and by the corticosteroid composition+HAF.\nThe epidermal thickness was measured with an ocular micrometer after treatment with different corticosteroids. Ten measurements were made per mouse. The prevention index is the ratio between the control treated by the corticosteroid alone and the corresponding composition comprising the HAFs.\nThe non-treated hyaluronic acid, the fragments obtained by action of hyaluronidase, as well as the HAFs were compared for their preventive effects. The epidermal thickness was measured with an ocular micrometer. Ten measurements were made per mouse. The prevention index is the ratio between the control treated with the corticosteroid alone and with each corticosteroid composition+HAF."}, "C57B1/6 mice": {"test_system": "C57B1/6 mice", "test": "Inflammation induced by TPA in the ear of mice: epidermis and dermis thickness, dermal cellularity", "type": "in vivo", "details": "0.005% TPA on ears, PC 0.05%, HAF 1%, 4 days", "experimental": "(§1) Skin inflammation was induced by topical application of 0.005% TPA (12-o-tetradecanoylphorbol-13-acetate) in acetone, on the ears of C57B1/6 mice; the control animals received the same volume of acetone. Clobetasol propionate (0.05%) and the HAFs (1%) were dissolved in 100 μL of carrier, and were applied together with TPA for 4 days; the control animals received the same volume of carrier. The inflammation was determined by measuring the thickness of the ears with a clip and the dermis-epidermis thickness in optical microscopy and by assaying myeloperoxidase activity. The animals were sacrificed 24 hrs after the last application. 6 mm biopsies were sampled, frozen in liquid nitrogen and then stored at −70° C. until the day of the analysis. The remainder of the tissue was set with formol and analyzed by immunohistology.\nThe epidermal inflammation induced by the application of Phorbol TPA ester was measured, after application of TPA, and then after treatment with clobetasol propionate, and after treatment with the composition comprising clobetasol propionate and HAFs. Ten measurements were made per mouse. The anti-inflammation index is the ratio between the control treated with TPA, and with the composition TPA+PC or TPA+PC+HAF.\nThe dermal inflammation induced by applying Phorbol TPA ester was measured, after application of TPA, and then after treatment with clobetasol propionate and after treatment with the composition comprising clobetasol propionate and HAFs. Ten measurements were made per mouse, the results are grouped in the Table 6 below. The anti-inflammation index in the ratio between the control treated with TPA, and with the association TPA+PC or TPA+PC+HAF.\nDermal cellularity induced by applying Phorbol TPA ester was measured, after application of TPA, and then after treatment with clobetasol propionate, and after treatment with the composition comprising clobetasol propionate and HAFs. Ten measurements were made per mouse. The anti-inflammation index is the ratio between the control treated with TPA, and with the association TPA+PC or TPA+PC+HAF."}, "myeloperoxidase": {"test_system": "myeloperoxidase", "test": "Myeloperoxidase activity in supernatant of homogenates of TPA-treated ear biopsies", "type": "in vivo, mice", "details": "0.005% TPA on ears, PC 0.05%, HAF 1%, 4 days", "experimental": "as §1\nThe myeloperoxidase activity was determined in the supernatant of the homogenates of the ear biopsies. […] The enzymatic activity of myeloperoxidase was determined according to the method of Bradley et al., modified for using the photometric plate reader. […] The optical density was measured at 450 nm. […] The expression of CD44, CD44v3 and pro-HB-EGF was analyzed by immunohistochemistry and by Western blotting according to methods already described (PLoS Med 3 (12): e493, 2006). […]"}, "hairless SKH1 mice": {"test_system": "hairless SKH1 mice", "details": "JEADV 19: 124, 2005; cited from earlier work"}, "[1]": {"details": "Table 3: corticosteroid 0.05%, with or without HAF"}},
  "data": [
    {"smiles": "C[C@H]1C[C@H]2[C@@H]3CCC4=CC(=O)C=C[C@]4(C)[C@@]3(F)[C@@H](O)C[C@]2(C)[C@@]1(O)C(=O)CO", "note": "[Betamethasone]", "values": [
      {"measurement": "Epidermal thickness % of non-treated control", "setting": "Hairless SKH mice; [1]", "value": "53 % of non-treated control"}
    ]},
    {"smiles": "CCC(=O)O[C@]1(C(=O)CCl)[C@@H](C)C[C@H]2[C@@H]3CCC4=CC(=O)C=C[C@]4(C)[C@@]3(F)[C@@H](O)C[C@@]21C", "note": "[PC, clobetasol propionate]", "values": [
      {"measurement": "Cutaneous thickness % of non-treated control", "setting": "Hairless SKH mice; PC 0.05%, HAF 1% where present, distance between granular layer and sweating glands", "value": "56 % of non-treated control"},
      {"measurement": "Epidermal thickness % of non-treated control", "setting": "Hairless SKH mice; PC 0.05%, HAF 1% where present, topical on the back twice daily for 5 days", "value": "33 % of non-treated control"},
      {"measurement": "Epidermal thickness % of non-treated control", "setting": "Hairless SKH mice; [1]", "value": "28 % of non-treated control"},
      {"measurement": "Epidermal thickness % of non-treated control", "setting": "Hairless SKH mice; Table 4: 0.05% Clobetasol alone or with HA form", "value": "28 % of non-treated control"}
    ]},
    {"smiles": "CCCCCCCCCCCCCC(=O)O[C@@H]1[C@@H](C)[C@@]2(O)[C@@H](C=C(CO)C[C@]3(O)C(=O)C(C)=C[C@@H]23)[C@@H]2C(C)(C)[C@]12OC(C)=O", "note": "[TPA, 12-o-tetradecanoylphorbol-13-acetate]", "values": [
      {"measurement": "Dermal cellularity % of control", "setting": "C57B1/6 mice", "value": "789 % of control"},
      {"measurement": "Dermis inflammation % of non-treated control", "setting": "C57B1/6 mice", "value": "226 % of non-treated control"},
      {"measurement": "Epidermis inflammation % of control", "setting": "C57B1/6 mice", "value": "438 % of control"},
      {"measurement": "myeloperoxidase % of control", "setting": "myeloperoxidase", "value": "3273 % of control"}
    ]},
    {"smiles": "CC1(C)O[C@@H]2C[C@H]3[C@@H]4CCC5=CC(=O)C=C[C@]5(C)[C@H]4[C@@H](O)C[C@]3(C)[C@]2(C(=O)CO)O1", "note": "[Desonide, desonide]", "values": [
      {"measurement": "Epidermal thickness % of non-treated control", "setting": "Hairless SKH mice; Desonide 0.025%, HAF 0 or 1%", "value": "72 % of non-treated control"},
      {"measurement": "Epidermal thickness % of non-treated control", "setting": "Hairless SKH mice; Desonide 0.05%, HAF 0 or 1%", "value": "62 % of non-treated control"},
      {"measurement": "Epidermal thickness % of non-treated control", "setting": "Hairless SKH mice; Desonide 0.075%, HAF 0", "value": "55 % of non-treated control"},
      {"measurement": "Epidermal thickness % of non-treated control", "setting": "Hairless SKH mice; Desonide 0.1%, HAF 0 or 1%", "value": "46 % of non-treated control"},
      {"measurement": "Epidermal thickness % of non-treated control", "setting": "Hairless SKH mice; [1]", "value": "62 % of non-treated control"},
      {"measurement": "Epidermal thickness % of non-treated control", "setting": "Hairless SKH mice; Table 4: Desonide 0.1% alone or with HA form", "value": "46 % of non-treated control"}
    ]},
    {"smiles": "CC1=C(/C=C/C(C)=C/C=C/C(C)=C/C=O)C(C)(C)CCC1", "note": "[retinaldehyde]", "values": [
      {"measurement": "Prevention of epidermal atrophy induced by clobetasol propionate", "setting": "hairless SKH1 mice", "value": "prevents epidermal atrophy induced by a corticosteroid, clobetasol propionate"}
    ]}
  ]
}
